Assay results reported in paper PMC11509018, “Evaluation of the Role of Tanshinone I in an In Vitro System of Charcot-Marie-Tooth Disease Type 2N” (International Journal of Molecular Sciences, 2024).
Positions count from the first letter of the chain named.

Columns and labels:
[1] = target: T1, AlaRS^E337K (Homo sapiens, UniProt P49588, E337K); assay: Proteolytic digestion assay (trypsin, SDS-PAGE); details: three hours
T1 construct: made in house; host or cells: E. coli BL21 (DE3), pET-21a
T1 sequence (P49588 1-968 E337K): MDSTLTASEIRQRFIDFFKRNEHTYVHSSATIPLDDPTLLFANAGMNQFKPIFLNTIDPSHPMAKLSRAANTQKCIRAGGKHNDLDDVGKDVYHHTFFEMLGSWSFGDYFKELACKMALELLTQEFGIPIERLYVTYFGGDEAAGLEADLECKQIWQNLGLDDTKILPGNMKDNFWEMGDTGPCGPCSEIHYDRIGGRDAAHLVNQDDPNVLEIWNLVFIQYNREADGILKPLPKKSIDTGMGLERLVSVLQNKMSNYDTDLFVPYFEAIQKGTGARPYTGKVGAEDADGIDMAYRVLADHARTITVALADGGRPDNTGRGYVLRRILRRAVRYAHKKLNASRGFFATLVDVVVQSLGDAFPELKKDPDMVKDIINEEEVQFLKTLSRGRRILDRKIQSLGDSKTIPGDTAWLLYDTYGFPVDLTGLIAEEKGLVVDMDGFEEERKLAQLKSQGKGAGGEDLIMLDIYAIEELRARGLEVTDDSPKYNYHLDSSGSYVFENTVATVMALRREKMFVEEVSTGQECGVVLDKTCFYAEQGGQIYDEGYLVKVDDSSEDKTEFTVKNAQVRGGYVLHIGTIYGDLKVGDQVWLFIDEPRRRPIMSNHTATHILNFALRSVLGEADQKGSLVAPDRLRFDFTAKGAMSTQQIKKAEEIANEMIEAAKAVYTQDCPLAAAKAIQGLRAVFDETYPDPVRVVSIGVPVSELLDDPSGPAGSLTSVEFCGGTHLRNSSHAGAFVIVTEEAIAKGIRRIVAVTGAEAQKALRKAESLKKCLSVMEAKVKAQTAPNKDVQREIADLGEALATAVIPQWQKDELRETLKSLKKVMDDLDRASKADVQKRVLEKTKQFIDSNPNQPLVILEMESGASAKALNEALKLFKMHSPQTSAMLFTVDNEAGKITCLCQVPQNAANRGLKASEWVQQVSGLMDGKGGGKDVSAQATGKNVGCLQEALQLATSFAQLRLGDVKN
Source text: (§1) Furthermore, we examined the interaction of Tanshinone I with additional AlaRS CMT mutants capable of binding to Nrp1 and causing conformational changes by BLI and proteolysis assays on additional related mutants.
(§2) Figure 5 BLI and proteolytic digestion assay of AlaRS mutants with Tanshinone I. Binding sensorgrams for the interaction of Tanshinone I with immobilized AlaRS^R329H (A), AlaRS^G102R (C), AlaRS^R326W (E), and AlaRS^E337K (G). Each sensorgram contains five curves generated from five different concentrations. The KD values are presented as the mean ± SD and experiments were performed in triplicate. The AlaRS^N71Y (B), AlaRS^G102R (D), AlaRS^R326W (F), and AlaRS^E337K (H) proteins (in the presence and absence of Tanshinone I) were incubated with trypsin at different concentrations for three hours before the reactions were quenched, and the products were separated by SDS-PAGE.

[2] = target: T2, AlaRS^R326W (Homo sapiens, UniProt P49588, R326W); assay: Proteolytic digestion assay (trypsin, SDS-PAGE); details: three hours
T2 construct: made in house; host or cells: E. coli BL21 (DE3), pET-21a
T2 sequence (P49588 1-968 R326W): T1 sequence (P49588 1-968 E337K) with R326W, K337E
Source text: as §1, §2

In the case of `Cc1coc2c1C(=O)C(=O)c1c-2ccc2c(C)cccc12` [Tanshinone I], the “Effect on proteolytic fragments / conformation” value [1] is reported as “altered band patterns after Tanshinone I treatment” and the “Effect on proteolytic fragments / conformation” value [2] is reported as “distinct proteolytic fragments after Tanshinone I treatment”.
